Test results published in patent US7253286B2, “Nitrogen-containing aromatic derivatives” (Eisai Co., Ltd, priority 2000, dated 2007).

What was measured:
[1] = system: Human Umbilical Vein Endothelial Cells (HUVECs); assay: Inhibition against invasive tube formation by vascular endothelial cells in response to stimulation by angiogenic factor mixture; format: cell-based; parameters: key: the number of tubes formed in the absence of the test substance was designated as +++; scored on the 5-level scale of +++, ++, +, +/−, −; scored on the 5-level scale of +++, ++, +, +/−, −; scored on the 5-level scale of +++, ++, +, +/−, −; − was assigned if absolutely no tubes formed; settings: HUVEC on fibrin gel, EGF/FGF2/VEGF/HGF/TNF-α mixture, 6th day, MTT staining; for number of tubes formed in the fibrin gel (score) at 0.01 μM: test substance 0.01 μM; for number of tubes formed in the fibrin gel (score) at 0.1 μM: test substance 0.1 μM; for number of tubes formed in the fibrin gel (score) at 1.0 μM: test substance 1.0 μM
Summary of the method: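 HUVECs seeded on fibrin gel in Transwells were cultured with compound plus EGF, FGF2, VEGF, HGF and TNF-α in serum-free medium at 37 °C; medium with factors and compound was renewed on days 2 and 4. On day 6, MTT-stained tubes were counted microscopically and scored on a five-level scale from +++ (no-compound control) to −.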

[2] = system: Human Umbilical Vein Endothelial Cells (HUVECs); assay: Inhibition against sandwich tube formation by vascular endothelial cells in response to stimulation by VEGF; format: cell-based; settings: HUVEC in collagen gel sandwich, stimulation by VEGF (25 ng/ml VEGF and 10 ng/ml EGF), 4th day, total tube length, read-out: IC50 (concentration required for 50% inhibition of tube formation)
Summary of the method: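 HUVECs were sandwiched between collagen gel layers in serum-free medium with 25 ng/ml VEGF plus 10 ng/ml EGF, with test substance added above the gel at 37 °C. On day 4 tubes were MTT-stained and total tube length measured by image analysis. IC50 is the concentration halving tube length relative to no-compound wells.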

| SMILES | number of tubes formed in the fibrin gel (score) at 0.01 μM [1] | number of tubes formed in the fibrin gel (score) at 0.1 μM [1] | number of tubes formed in the fibrin gel (score) at 1.0 μM [1] | IC50 [2] [nM] |
| --- | --- | --- | --- | --- |
| N#CCCCOc1cc2nccc(Oc3ccc(NC(=O)Nc4ccc(F)cc4F)c(F)c3)c2cc1C#N [Example 55, N-(4-(6-Cyano-7-(3-cyanopropoxy)-4-quinolyl)oxy-2-fluorophenyl)-N′-(2,4-difluorophenyl)urea] | +++ | +/− | +/− | 35 |
| COCCOc1cc2nccc(Oc3ccc(NC(=O)Nc4ccc(F)cc4)c(F)c3)c2cc1C#N [Example 100, N-(4-(6-Cyano-7-(2-methoxyethoxy)-4-quinolyl)oxy-2-fluorophenyl)-N′-(4-fluorophenyl)urea] | ++ | +/− | +/− | 6.3 |
| CCNC(=O)n1ccc2cc(Oc3ccnc4cc(OC)c(C(N)=O)cc34)ccc21 [Example 316, 6-Carbamoyl-4-(1-ethylcarbamoyl-1H-indol-5-yloxy)-7-methoxyquinoline] | +/− | − | − | 1 |
| NC(=O)c1cc2c(Oc3ccc(NC(=O)NC4CC4)c(F)c3)ccnc2cc1OCCCN1CCOCC1 [Example 374, 4-(4-(Cyclopropylaminocarbonyl)amino-3-fluorophenoxy)-7-(3-(4-morpholino)propoxy)-6-quinolinecarboxamide] | +/− | − | − | 3 |
| COc1cc2nccc(Oc3ccc(NC(=O)NC4CC4)c(Cl)c3)c2cc1C(=O)NCCS(C)(=O)=O [Example 404, N6-(2-(Methylsulfonyl)ethyl)-4-(3-chloro-4-(((cyclopropylamino)carbonyl)amino)phenoxy)-7-methoxy-6-quinolinecarboxamide] | − | − | − | 2.8 |
